Where a name gives a salt, the structure may show the parent alone.
Target: T1, hNET (Homo sapiens, UniProt P23975)
T1 construct: expressed in transfected cells
Assay: Norepinephrine (NE) uptake assay in MDCK-Net6 cells
Assay type: cell-based
Details: [3H]NE uptake
Method: MDCK-Net6 cells, stably transfected with human hNET (Pacholczyk, T., R. D. Blakely, and S. G. Amara, Nature, 1991, 350(6316): p. 350-4) were cultured in growth medium containing high glucose DMEM (Gibco, Cat. No. 11995), 10% FBS (dialyzed, heat-inactivated, US Bio-Technologies, Lot FBD1129HI) and 500 µg/ml G418 (Gibco, Cat. No. 10131). Cells were plated at 300,000/T75 flask and cells were split twice weekly. The JAR cell line (human placental choriocarcinoma) was purchased from ATCC (Cat. No. HTB-144). The cells were cultured in growth medium containing RPMI 1640 (Gibco, Cat. No. 72400), 10% FBS (Irvine, Cat. No. 3000), 1% sodium pyruvate (Gibco, Cat. No. 1136) and 0.25% glucose. Cells were plated at 250,000 cells/T75 flask and split twice weekly. For all assays, cells were plated in Wallac 96-well sterile plates (PerkinElmer, Cat. No. 3983498)
On day 1, cells were plated at 3,000 cells/well in growth medium and maintained in a cell incubator (37° C., 5% CO2). On day 2, growth medium was replaced with 200 μl of assay buffer (25 mM HEPES; 120 mM NaCl; 5 mM KCl; 2.5 mM CaCl2; 1.2 mM MgSO4; 2 mg/ml glucose (pH 7.4, 37° C.)) containing 0.2 mg/ml ascorbic acid and 10 μM pargyline. […] The plates were counted in a Wallac Microbeta counter (PerkinElmer) to collect the raw cpm data. […]

T1 sequence (P23975 whole entry): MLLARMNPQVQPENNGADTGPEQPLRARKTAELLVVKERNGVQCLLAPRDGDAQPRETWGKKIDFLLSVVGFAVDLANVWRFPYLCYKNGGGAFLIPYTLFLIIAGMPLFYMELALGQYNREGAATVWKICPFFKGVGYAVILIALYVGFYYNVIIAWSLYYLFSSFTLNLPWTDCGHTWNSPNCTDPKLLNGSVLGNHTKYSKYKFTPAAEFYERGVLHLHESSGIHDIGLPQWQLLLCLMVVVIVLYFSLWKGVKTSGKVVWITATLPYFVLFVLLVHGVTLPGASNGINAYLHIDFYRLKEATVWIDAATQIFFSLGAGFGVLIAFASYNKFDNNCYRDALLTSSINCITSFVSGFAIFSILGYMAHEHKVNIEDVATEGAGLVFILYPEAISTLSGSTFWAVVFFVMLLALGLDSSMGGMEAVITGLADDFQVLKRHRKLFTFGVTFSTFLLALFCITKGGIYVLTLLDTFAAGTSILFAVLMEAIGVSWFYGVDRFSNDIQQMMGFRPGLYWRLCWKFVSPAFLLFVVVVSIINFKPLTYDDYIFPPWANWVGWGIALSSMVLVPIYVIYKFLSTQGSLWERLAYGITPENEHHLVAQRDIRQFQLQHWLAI

- inhibition at 6 µM: 33%
Compound: CNCC[C@@H](c1ccccc1)N1c2ccccc2N(C)S1(=O)=O [Example 5, (3S)-N-methyl-3-(3-methyl-2,2-dioxido-2,1,3-benzothiadiazol-1(3H)-yl)-3-phenylpropan-1-amine hydrochloride]

— patent US7601744B2, “Benzothiadiazolylphenylalkylamine derivatives and methods of their use” (Wyeth, priority 2005, dated 2009)
